# Measured values taken from patent US9227923B2, “Pesticidal carboxamides” (Bayer Intellectual Property GmbH, priority 2009, dated 2016).
# Tested on: Tobacco Cutworm (Spodoptera litura) Larvae
# Test: Test against tobacco cutworm (Spodoptera litura) larvae, leaf dip
# Type: in vivo
# Conditions: active compound concentration of 100 ppm, third instar larvae, after 7 days; for pest or weed control at 100 ppm: Spodoptera litura, foliar, 168 h, read-out: insecticidal activity
# Experimental: Solvent: 3 parts by weight of dimethylformamide
# Emulsifier: 1 part by weight of polyoxyethylene alkyl phenyl ether
# Leaves of sweet potato were immersed in the test solution at the appropriate concentration, and the leaves were dried in air. The leaves were then placed in a petri dish having a diameter of 9 cm, and ten Spodoptera litura at third instar larvae were released therein. The petri dishes were placed in a temperature-controlled chamber at 25° C. After 2 days and 4 days more sweet potato leaves were added. After 7 days, the number of dead larvae was counted to calculate the insecticidal activity. An insecticidal activity of 100% means that all larvae were killed, whereas an insecticidal activity of 0% means that no larva was killed.
Compound,pest or weed control at 100 ppm [%],insecticidal activity [%]
"O=C(Nc1c(Cl)cc(C(F)(C(F)(F)F)C(F)(F)F)cc1Cl)c1ccc(I)c(Cl)c1 [Compound A-7, 3-chloro-N-[2,6-dichloro-4-(1,1,1,2,3,3,3-heptafluoropropan-2-yl)phenyl]-4-iodobenzamide]",100,
CCc1cc(C(F)(C(F)(F)F)C(F)(F)F)cc(C)c1NC(=O)c1ccc(CN)c(Cl)c1 [Compound 5-76],,100
CCc1cc(C(F)(C(F)(F)F)C(F)(F)F)cc(C)c1NC(=O)c1ccc2c(c1)CCCC2NC(=O)CC(F)(F)F (centres unmarked) [Compound 11-6],,100
CCc1cc(C(F)(C(F)(F)F)C(F)(F)F)cc(C)c1NC(=O)c1ccc(C#N)cc1F [Compound I-3],,100
Cc1cc(C(F)(C(F)(F)F)C(F)(F)F)cc(Cl)c1NC(=O)c1ccc(C#N)cc1 [Compound I-28],,100
CCc1cc(C(F)(C(F)(F)F)C(F)(F)F)cc(C)c1NC(=O)c1ccc(CNC(=O)C2CC2)c([N+](=O)[O-])c1 [Compound 5-116],,100
CCC(=O)NCc1ccc(C(=O)Nc2c(C)cc(C(F)(C(F)(F)F)C(F)(F)F)cc2CC)c2ccccc12 [Compound 6-3],,100
O=C(CC1CC1)NCc1ccc(C(=O)Nc2c(Cl)cc(C(F)(C(F)(F)F)C(F)(F)C(F)(F)F)cc2Cl)cc1Cl (centres unmarked) [Compound 5-330],,100
CCC(=O)NCc1ccc(C(=O)Nc2c(C)cc(C(F)(C(F)(F)F)C(F)(F)F)cc2CC)cc1I [Compound 5-191],,100
CCc1cc(C(F)(C(F)(F)F)C(F)(F)F)cc(C)c1NC(=O)c1ccc(CNC(=O)C2CC2)c(F)c1F [Compound 5-53],,100
CCc1cc(C(F)(C(F)(F)F)C(F)(F)F)cc(C)c1NC(=O)c1ccc(C(C)NC(=O)CC2CC2)cc1 (centres unmarked) [Compound 9-5],,100
"CCc1cc(C(F)(C(F)(F)F)C(F)(F)F)cc(C)c1NC(=O)c1ccc(-n2cncn2)c(CNC(C)=O)c1 [Compound 12-3, 3-(acetamidemethyl)-N-[2-ethyl-4-(1,1,1,2,3,3,3-heptafluoropropan-2-yl)-6-methylphenyl]-4-(1H-1,2,4-triazol-1-yl)benzamide]",100,
CCc1cc(C(F)(C(F)(F)F)C(F)(F)F)cc(C)c1NC(=O)c1ccc(C#N)cc1 [Compound I-2],,100
Cc1cc(C(F)(C(F)(F)F)C(F)(F)F)cc(Cl)c1NC(=O)c1ccc(CNC(=O)CC2CC2)cc1 [Compound 5-336],,100
Cc1cc(C(F)(C(F)(F)F)C(F)(F)F)cc(C)c1NC(=O)c1ccc(CNC(=O)CC2CC2)cc1F [Compound 5-24],,100
CCC(=O)NCc1ccc(C(=O)Nc2c(C)cc(C(F)(C(F)(F)F)C(F)(F)F)cc2CC)cc1C(F)(F)F [Compound 5-107],,100
CCc1cc(C(F)(C(F)(F)F)C(F)(F)F)cc(C)c1NC(=O)c1ccc(CNC(=O)CC(F)(F)F)c(F)c1F [Compound 5-55],,100
CCc1cc(C(F)(C(F)(F)F)C(F)(F)F)cc(C)c1NC(=O)c1ccc(CNC(=O)c2ccccc2Cl)cc1 [Compound 5-37],,100
CCc1cc(C(F)(C(F)(F)F)C(F)(F)F)cc(C)c1NC(=O)c1ccc(CNC(=O)CC2CC2)c(F)c1F [Compound 5-54],,100

Compound,pest or weed control at 100 ppm [%],insecticidal activity [%]
CCc1cc(C(F)(C(F)(F)F)C(F)(F)F)cc(C)c1NC(=O)c1ccc(CNC(C)=O)c(I)c1 [Compound 5-190],,100
CCC(=O)NCc1ccc(C(=O)Nc2c(C)cc(C(F)(C(F)(F)F)C(F)(F)F)cc2C)cc1 [Compound 5-3],,100
CCc1cc(C(F)(C(F)(F)F)C(F)(F)F)cc(C)c1NC(=O)c1ccc(CN(C)C(=O)c2cccnc2Cl)cc1 [Compound 5-189],,100
Cc1cc(C(F)(C(F)(F)F)C(F)(F)F)cc(Cl)c1NC(=O)c1ccc(CNC(=O)CC(F)(F)F)cc1 [Compound 5-335],,100
Cc1cc(C(F)(C(F)(F)F)C(F)(F)F)cc(C)c1NC(=O)c1ccc(CNC(=O)c2cccnc2Cl)cc1F [Compound 5-182],,100
O=C(CC1CC1)NCc1ccc(C(=O)Nc2c(Cl)cc(C(F)(C(F)(F)F)C(F)(F)C(F)(F)F)cc2Cl)cc1 (centres unmarked) [Compound 5-325],,100
CCC(=O)NCc1ccc(C(=O)Nc2c(C)cc(C(F)(C(F)(F)F)C(F)(F)C(F)(F)F)cc2CC)cc1I (centres unmarked) [Compound 5-195],,100
CCc1cc(C(F)(C(F)(F)F)C(F)(F)F)cc(C)c1NC(=O)c1ccc(CN)c(Br)c1 [Compound 5-83],,100
CCc1cc(C(F)(C(F)(F)F)C(F)(F)C(F)(F)F)cc(C)c1NC(=O)c1ccc(CNC(=O)C2CC2)c(I)c1 (centres unmarked) [Compound 5-196],,100
Cc1cc(C#N)ccc1C(=O)Nc1c(Cl)cc(C(F)(C(F)(F)F)C(F)(F)F)cc1Cl [Compound I-25],,100
CCc1cc(C(F)(C(F)(F)F)C(F)(F)F)cc(C)c1NC(=O)c1ccc(CNC(=O)CC2CC2)c2ccccc12 [Compound 6-5],,100
CCc1cc(C(F)(C(F)(F)F)C(F)(F)F)cc(C)c1NC(=O)c1ccc(-n2cncn2)c(CNC(=O)OC)c1 [Compound 12-5],,100
CC(C)(C)OC(=O)NCc1ccc(C(=O)Nc2c(Cl)cc(C(F)(C(F)(F)F)C(F)(F)C(F)(F)F)cc2Cl)cc1Cl (centres unmarked) [Compound 5-329],,100
CCc1cc(C(F)(C(F)(F)F)C(F)(F)F)cc(C)c1NC(=O)c1ccc(CNC(C)=O)c(C(F)(F)F)c1 [Compound 5-106],,100
CCc1cc(C(F)(C(F)(F)F)C(F)(F)F)cc(C)c1NC(=O)c1ccc(CNC(=O)C(F)(F)F)c(Br)c1 [Compound 5-349],,100
CCc1cc(C(F)(C(F)(F)F)C(F)(F)F)cc(C)c1NC(=O)c1ccc(CNC(=O)CC2CC2)cc1 [Compound 5-31],,100
CCc1cc(C(F)(C(F)(F)F)C(F)(F)F)cc(C)c1NC(=O)c1ccc(CNC(=O)c2ccc(Cl)cc2)cc1 [Compound 5-39],,100
CCC(=O)NCc1ccc(C(=O)Nc2c(C)cc(C(F)(C(F)(F)F)C(F)(F)F)cc2CC)cc1[N+](=O)[O-] [Compound 5-115],,100
Cc1cc(C(F)(C(F)(F)F)C(F)(F)F)cc(OC(F)F)c1NC(=O)c1ccc(CN)c(Cl)c1 [Compound 5-293],,100

Compound,pest or weed control at 100 ppm [%],insecticidal activity [%]
Cc1cc(C(F)(C(F)(F)F)C(F)(F)F)cc(C)c1NC(=O)c1ccc(CNC(=O)c2cccnc2F)cc1 [Compound 5-19],,100
CCc1cc(C(F)(C(F)(F)F)C(F)(F)F)cc(C)c1NC(=O)c1ccc(CNC(=O)C2CC2)c2ccccc12 [Compound 6-4],,100
CCc1cc(C(F)(C(F)(F)F)C(F)(F)F)cc(C)c1NC(=O)c1ccc(CNC(=O)c2cccc(Cl)c2)cc1 [Compound 5-38],,100
CCc1cc(C(F)(C(F)(F)F)C(F)(F)F)cc(C)c1NC(=O)c1ccc(CNC(=O)CC(F)(F)F)cc1Cl [Compound 5-68],,100
CCc1cc(C(F)(C(F)(F)F)C(F)(F)F)cc(C)c1NC(=O)c1ccc(CNC(=O)C2CC2)c(C(F)(F)F)c1 [Compound 5-108],,100
CCc1cc(C(F)(C(F)(F)F)C(F)(F)F)cc(C)c1NC(=O)c1ccc(CNC(=O)CC(F)(F)F)nc1 [Compound 8-6],,100
CCc1cc(C(F)(C(F)(F)F)C(F)(F)Br)cc(C)c1NC(=O)c1ccc(CNC(=O)C2CC2)c(Cl)c1 (racemic) [Compound 5-318],,100
CCC(=O)NCc1ccc(C(=O)Nc2c(C)cc(C(F)(C(F)(F)F)C(F)(F)C(F)(F)F)cc2CC)cc1Br (centres unmarked) [Compound 5-158],,100
"CCc1cc(C(F)(C(F)(F)F)C(F)(F)F)cc(C)c1NC(=O)c1ccc2c(c1)CCC2NC(C)=O (centres unmarked) [Compound 10-2, 1-acetamide-N-[2-ethyl-4-(1,1,1,2,3,3,3-heptafluoropropan-2-yl)-6-methylphenyl]indane-5-carboxamide]",100,
CCc1cc(C(F)(C(F)(F)F)C(F)(F)F)cc(C)c1NC(=O)c1ccc(CNC(=O)CC(F)(F)F)cn1 [Compound 7-6],,100
CCc1cc(C(F)(C(F)(F)F)C(F)(F)C(F)(F)F)cc(C)c1NC(=O)c1ccc(CNC(=O)CC2CC2)c(Br)c1 (centres unmarked) [Compound 5-160],,100
CCc1cc(C(F)(C(F)(F)F)C(F)(F)C(F)(F)F)cc(C)c1NC(=O)c1ccc(CNC(=O)CC2CC2)c(I)c1 (centres unmarked) [Compound 5-197],,100
CCc1cc(C(F)(C(F)(F)F)C(F)(F)F)cc(C)c1NC(=O)c1ccc(CNC(C)=O)c2ccccc12 [Compound 6-2],,100
CCc1cc(C(F)(C(F)(F)F)C(F)(F)F)cc(C)c1NC(=O)c1ccc(CNC(C)=O)c(C)c1 [Compound 5-99],,100
CCc1cc(C(F)(C(F)(F)F)C(F)(F)F)cc(C)c1NC(=O)c1ccc(CNC(=O)CC2CC2)c([N+](=O)[O-])c1 [Compound 5-117],,100
Cc1cc(C(F)(C(F)(F)F)C(F)(F)F)cc(C)c1NC(=O)c1ccc(CNC(=O)CC(F)(F)F)cc1 [Compound 5-7],,100
CCC(=O)NCc1ccc(C(=O)Nc2c(C)cc(C(F)(C(F)(F)F)C(F)(F)F)cc2CC)c(Cl)c1 [Compound 5-66],,100
"CCC(=O)NCc1ccc(C(=O)Nc2c(Cl)cc(C(F)(C(F)(F)F)C(F)(F)F)cc2Cl)cc1Cl [Compound 5-230, 3-chloro-N-[2,6-dichloro-4-(1,1,1,2,3,3,3-heptafluoropropan-2-yl)phenyl]-4-[(propionylamino)methyl]benzamide]",100,
